We go through 14 compounds from US20250179066A1, “ZWITTERIONIC ANTIBACTERIAL COMPOUNDS” (Hoffmann-La Roche Inc., priority 2022, published 2025).

Where a name gives a salt, the structure may show the parent alone.

One experiment relates to Acinetobacter baumannii ATCC17961. The experiment in a line: Antimicrobial susceptibility testing: 90% growth inhibitory concentration (IC90) determination. The class given is cell-based. The settings on record: 90% growth inhibitory concentration against Acinetobacter baumannii ATCC17961, Iso-Sensitest broth, OD 600 nm over 16 h; read-out: ATCC 17961 IC90. How it is done:
The in vitro antimicrobial activity of the compounds was determined according to the following procedure: The assay used a 10-points Iso-Sensitest broth medium to measure quantitatively the in vitro activity of the compounds against Acinetobacter baumannii ATCC17961. Stock compounds in DMSO were serially twofold diluted (e.g. range from 10 to 0.0195 μM final concentration) in 384 wells microtiter plates and inoculated with 49 μL the bacterial suspension in Iso-Sensitest medium to have a final cell concentration of ˜5×10^(5) CFU/mL in a final volume/well of 50 μL/well. Microtiter plates were incubated at 35±2° C. Bacterial cell growth was determined with the measurement of optical density at λ=600 nm each min over a time course of 16 h. Growth inhibition was calculated during the logarithmic growth of the bacterial cells with determination of the concentration inhibiting 50% (IC50) and 90% (IC90) of the growth. Table 1 provides the 90% growth inhibitory concentrations (IC90) in micromoles per liter of the compounds of present invention obtained against the strain Acinetobacter baumannii ATCC17961.
Usually IC90 stands for the concentration needed for an effect of 90%. In the case of `Cn1c(-c2cn(-c3ccc(N)cc3F)nc2C(F)(F)F)cnc1C(=O)Nc1ccc(C(=O)N2CCN(C(=O)OCC[N+](CCCN)(CCCN)CC(=O)O)CC2)c(Cl)c1` [Example 130, 2-[4-[4-[[5-[1-(4-amino-2-fluoro-phenyl)-3-(trifluoromethyl)pyrazol-4-yl]-1-methyl-imidazole-2-carbonyl]amino]-2-chloro-benzoyl]piperazine-1-carbonyl]oxyethyl-bis(3-aminopropyl)-(carboxymethyl)ammonium; formate], the IC90 was 252 nM.

Staying with this experiment, now noted: Acinetobacter baumannii, ATCC17961, 16 h, 90% growth inhibitory concentration against Acinetobacter baumannii ATCC17961, Iso-Sensitest broth, OD 600 nm over 16 h; read-out: ATCC 17961 IC90.
Consider `Cn1c(-c2cn(-c3ccc(N)cn3)nc2C(F)(F)F)cnc1C(=O)Nc1ccc(C(=O)N2CCN(C(=O)[C@H]3CC[N@@+](CC(=O)O)(CC4CNC4)CC3)CC2)c(Cl)c1` [Example 64, trans-2-[4-[4-[4-[[5-[1-(5-amino-2-pyridyl)-3-(trifluoromethyl)pyrazol-4-yl]-1-methyl-imidazole-2-carbonyl]amino]-2-chloro-benzoyl]piperazine-1-carbonyl]-1-(azetidin-3-ylmethyl)piperidin-1-ium-1-yl]acetic acid. 1:1 2,2,2-trifluoroacetic acid. 1:1 2,2,2-trifluoroacetate], for which the IC90 was found to be 680 nM.

Consider `Cn1c(-c2cn(-c3ccc(N)cc3F)nc2C(F)(F)F)cnc1C(=O)Nc1ccc(C(=O)N2CCN(C(=O)[C@H]3CC[N@@+](CCCN)(CC(=O)O)CC3)CC2)c(Cl)c1` [Example 170, cis-2-[4-[4-[4-[[5-[1-(4-amino-2-fluoro-phenyl)-3-(trifluoromethyl)pyrazol-4-yl]-1-methyl-imidazole-2-carbonyl]amino]-2-chloro-benzoyl]piperazine-1-carbonyl]-1-(3-aminopropyl)piperidin-1-ium-1-yl]acetic acid. 1:1 2,2,2-trifluoroacetate], for which the IC90 was 199 nM.

In the case of `Cn1c(-c2cn(-c3ccnc(N)c3)nc2C(F)(F)F)cnc1C(=O)Nc1ccc(C(=O)N2CCN(C(=O)C3CC[N+](CC(=O)O)(CC4CNC4)CC3)CC2)c(Cl)c1` (centres unmarked) [Example 74, 2-[4-[4-[4-[[5-[1-(2-amino-4-pyridyl)-3-(trifluoromethyl)pyrazol-4-yl]-1-methyl-imidazole-2-carbonyl]amino]-2-chloro-benzoyl]piperazine-1-carbonyl]-1-(azetidin-3-ylmethyl)piperidin-1-ium-1-yl]acetic acid. 1:1 2,2,2-trifluoroacetate], the IC90 was 940 nM.

Take `COc1ccc(-n2cc(-c3cnc(C(=O)Nc4ccc(C(=O)N5CCN(C(=O)C6CC[N+](CC(=O)O)(CC7CNC7)CC6)CC5)c(Cl)c4)n3C)c(C(F)(F)F)n2)cc1` (centres unmarked) [Example 37, 2-[1-(azetidin-3-ylmethyl)-4-[4-[2-chloro-4-[[5-[1-(4-methoxyphenyl)-3-(trifluoromethyl)pyrazol-4-yl]-1-methyl-imidazole-2-carbonyl]amino]benzoyl]piperazine-1-carbonyl]piperidin-1-ium-1-yl]acetic acid. 1:1 formate]: the IC90 was 420 nM.

For `Cn1c(-c2cn(-c3ccc4c(cc(C(=O)NCCO)n4C)n3)nc2C(F)(F)F)cnc1C(=O)Nc1ccc(C(=O)N2CCN(C(=O)[C@H]3CC[N@@+](CCCN)(CC(=O)O)CC3)CC2)c(Cl)c1` [Example 104, cis-2-[1-(3-aminopropyl)-4-[4-[2-chloro-4-[[5-[1-[2-(2-hydroxyethylcarbamoyl)-1-methyl-pyrrolo[3,2-b]pyridin-5-yl]-3-(trifluoromethyl)pyrazol-4-yl]-1-methyl-imidazole-2-carbonyl]amino]benzoyl]piperazine-1-carbonyl]piperidin-1-ium-1-yl]acetic acid;chloride], the IC90 was found to be 783 nM.

As for `Cn1c(-c2cn(-c3cc4[nH]cc(C(=O)N5CCNCC5)c4cn3)nc2C(F)(F)F)cnc1C(=O)Nc1ccc(C(=O)N2CCN(C(=O)[C@H]3CC[N@+](CC(=O)O)(CC4CNC4)CC3)CC2)c(Cl)c1` [Example 147, cis-2-[1-(azetidin-3-ylmethyl)-4-[4-[2-chloro-4-[[1-methyl-5-[1-[3-(piperazine-1-carbonyl)-1H-pyrrolo[3,2-c]pyridin-6-yl]-4-(trifluoromethyl)pyrazol-4-yl]imidazole-2-carbonyl]amino]benzoyl]piperazine-1-carbonyl]piperidin-1-ium-1-yl]acetic acid. 1:1 2,2,2-trifluoroacetate], the IC90 stood at 181 nM.

In the case of `Cn1c(-c2cn(-c3ccc(NCCN)nc3)nc2C(F)(F)F)cnc1C(=O)Nc1ccc(C(=O)N2CCN(C(=O)C3CC[N+](CC(=O)O)(CC4CNC4)CC3)CC2)c(Cl)c1` (centres unmarked) [Example 8, 2-[4-[4-[4-[[5-[1-[6-(2-aminoethylamino)-3-pyridyl]-3-(trifluoromethyl)pyrazol-4-yl]-1-methyl-imidazole-2-carbonyl]amino]-2-chloro-benzoyl]piperazine-1-carbonyl]-1-(azetidin-3-ylmethyl)piperidin-1-ium-1-yl]acetic acid. 1:1 2,2,2-trifluoroacetate], the IC90 is 1550 nM.

As to `Cn1c(-c2cn(-c3ccc(NCCCN)cc3F)nc2C(F)(F)F)cnc1C(=O)Nc1ccc(C(=O)N2CCN(C(=O)[C@H]3CC[N@+](CC(=O)O)(CC4CNC4)CC3)CC2)c(Cl)c1` [Example 186, cis-2-[4-[4-[4-[[5-[1-[4-(3-aminopropylamino)-2-fluoro-phenyl]-3-(trifluoromethyl)pyrazol-4-yl]-1-methyl-imidazole-2-carbonyl]amino]-2-chloro-benzoyl]piperazine-1-carbonyl]-1-(azetidin-3-ylmethyl)piperidin-1-ium-1-yl]acetic Acid.1:1 formate], the IC90 is 160 nM.

As for `Cn1c(-c2cn(-c3ccc4c(cc(C(=O)N5CCOCC5)n4C)n3)nc2C(F)(F)F)cnc1C(=O)Nc1ccc(C(=O)N2CCN(C(=O)[C@H]3CC[N@@+](CCCN)(CC(=O)O)CC3)CC2)c(Cl)c1` [Example 103, cis-2-[1-(3-aminopropyl)-4-[4-[2-chloro-4-[[1-methyl-5-[1-[1-methyl-2-(morpholine-4-carbonyl)pyrrolo[3,2-b]pyridin-5-yl]-3-(trifluoromethyl)pyrazol-4-yl]imidazole-2-carbonyl]amino]benzoyl]piperazine-1-carbonyl]piperidin-1-ium-1-yl]acetic acid;formate], the IC90 turned out to be 604 nM.

With `Cn1c(-c2cn(-c3cc4[nH]c(C(=O)N5CC6CNCC(C5)O6)cc4cn3)nc2C(F)(F)F)cnc1C(=O)Nc1ccc(C(=O)N2CCN(C(=O)[C@H]3CC[N@+](CC(=O)O)(CC4CNC4)CC3)CC2)c(Cl)c1` [Example 116, cis-2-[1-(azetidin-3-ylmethyl)-4-[4-[2-chloro-4-[[1-methyl-5-[1-[2-(9-oxa-3,7-diazabicyclo[3.3.1]nonane-3-carbonyl)-1H-pyrrolo[3,2-c]pyridin-6-yl]-3-(trifluoromethyl)pyrazol-4-yl]imidazole-2-carbonyl]amino]benzoyl]piperazine-1-carbonyl]piperidin-1-ium-1-yl]acetic acid. 1:1 2,2,2-trifluoroacetic acid. 1:1 2,2,2-trifluoroacetate], the IC90 is 213 nM.

Consider `Cn1c(-c2cn(-c3cc4[nH]c(C(=O)NCC(O)C(F)(F)F)cc4cn3)nc2C(F)(F)F)cnc1C(=O)Nc1ccc(C(=O)N2CCN(C(=O)[C@H]3CC[N@+](CC(=O)O)(CC4CNC4)CC3)CC2)c(Cl)c1` (stereo partly drawn) [Example 117, cis-2-[1-(azetidin-3-ylmethyl)-4-[4-[2-chloro-4-[[1-methyl-5-[1-[2-[(3,3,3-trifluoro-2-hydroxy-propyl)carbamoyl]-1H-pyrrolo[3,2-c]pyridin-6-yl]-3-(trifluoromethyl)pyrazol-4-yl]imidazole-2-carbonyl]amino]benzoyl]piperazine-1-carbonyl]piperidin-1-ium-1-yl]acetic acid. 1:1 2,2,2-trifluoroacetate], for which the IC90 was 215 nM.

With `COCCNc1ccc(-n2cc(-c3cnc(C(=O)Nc4ccc(C(=O)N5CCN(C(=O)[C@H]6CC[N@+](CC(=O)O)(CC7CNC7)CC6)CC5)c(C)c4)n3C)c(C(F)(F)F)n2)c(F)c1` [Example 111, cis-2-[1-(azetidin-3-ylmethyl)-4-[4-[4-[[5-[1-[2-fluoro-4-(2-methoxyethylamino)phenyl]-3-(trifluoromethyl)pyrazol-4-yl]-1-methyl-imidazole-2-carbonyl]amino]-2-methyl-benzoyl]piperazine-1-carbonyl]piperidin-1-ium-1-yl]acetic acid;2,2,2-trifluoroacetate], the IC90 came to 185 nM.

For `Cn1c(-c2cn(-c3ccc4c(cc(CO)n4CC#N)n3)nc2C(F)(F)F)cnc1C(=O)Nc1ccc(C(=O)N2CCN(C(=O)[C@H]3CC[N@+](CC(=O)O)(CC4CNC4)CC3)CC2)c(Cl)c1` [Example 169, cis-2-[1-(azetidin-3-ylmethyl)-4-[4-[2-chloro-4-[[5-[1-[1-(cyanomethyl)-2-methylol-pyrrolo[3,2-b]pyridin-5-yl]-3-(trifluoromethyl)pyrazol-4-yl]-1-methyl-imidazole-2-carbonyl]amino]benzoyl]piperazine-1-carbonyl]piperidin-1-ium-1-yl]acetic acid. 1:1 2,2,2-trifluoroacetate], the IC90 worked out at 466 nM.
